Source: ChEMBL document CHEMBL1124848, “Monomethyl ether derivatives of 7,8-dihydroxy- and 8,9-dihydroxy-4-n-propyl-1,2,3,4,4a,5,6,10b-octahydrobenzo[f]quinolines as possible products of metabolism by catechol-O-methyltransferase” (1990)

Legend:
[1] = Evaluated for its effect in the cat cardioaccelerator nerve assay at the dose of 0.0013 umol/kg; type: functional; conditions: Felis catus
[2] = Evaluated for its effect in the cat cardioaccelerator nerve assay at the dose of 300 ug/kg; type: functional; conditions: Felis catus

Structure (SMILES) | inhibition in vivo at 0.0013 µmol/kg [1] | inhibition in vivo at 0.3 mg/kg [2]
CCCN1CCC[C@H]2c3cc(O)c(O)cc3CC[C@@H]21 | 50% | 
CCCN1CCC[C@H]2c3cc(OC)c(O)cc3CC[C@@H]21 |  | 50%
